# Test system: 15 different cancer cell lines
# Experiment: not given
# Conditions: read-out: mean EC50 averaged from 15 different cancer cell lines; cited from earlier work
row,SMILES,EC50 [nM]
1,"CO[C@@H](C(=O)N1Cc2[nH]nc(NC(=O)c3ccc(N4CCN(C)CC4)cc3)c2C1)c1ccccc1 [Compound 1, danusertib]",123

# Target: T1, TbAUK1 (Trypanosoma brucei brucei, UniProt Q384J7)
# Experiment: not given
# Conditions: at 200 nM; cited from earlier work
row,SMILES,inhibition of TbAUK1 kinase activity
1,"CCS(=O)(=O)Nc1ccc2c(c1)/C(=C(/Nc1ccc(CN3CCCCC3)cc1)c1ccccc1)C(=O)N2 [Hesperadin, hesperadin]",to the level of a background kinase

# Test system: T. brucei rhodesiense YTAT1.1 strain
# Experiment: dose-response against T. b. rhodesiense cultures, Cell Titer Blue assay
# Format: cell-based, Trypanosoma brucei rhodesiense
# Conditions: ratio MOLT-4 EC50 / T. b. rhodesiense EC50
row,SMILES,Selectivity MOLT/Tbr
1,"CN1CCN(c2ccc(C(=O)Nc3n[nH]c4c3CN(C(=O)Cc3cccc5ccccc35)C4)cc2)CC1 [Compound 8, 4-(4-Methylpiperazin-1-yl)-N-(5-(2-(naphthalen-1-yl)acetyl)-1,4,5,6-tetrahydropyrrolo[3,4-c]pyrazol-3-yl)benzamide]",23.4
2,"CN1CCN(c2ccc(C(=O)Nc3n[nH]c4c3CN(C(=O)Cc3c(F)ccc(F)c3F)C4)cc2)CC1 [Compound 9, 4-(4-Methylpiperazin-1-yl)-N-(5-(2-(2,3,6-trifluorophenyl)acetyl)-1,4,5,6-tetrahydropyrrolo[3,4-c]pyrazol-3-yl)benzamide]",6.9
3,"CN1CCN(c2ccc(C(=O)Nc3n[nH]c4c3CN(C(=O)Cc3cccc(Cl)c3)C4)cc2)CC1 [Compound 11, N-(5-(2-(3-Chlorophenyl)acetyl)-1,4,5,6-tetrahydropyrrolo[3,4-c]pyrazol-3-yl)-4-(4-methylpiperazin-1-yl)benzamide]",6.9
4,"Cc1ccc(C(C)C(=O)N2Cc3[nH]nc(NC(=O)c4ccc(N5CCN(C)CC5)cc4)c3C2)cc1 (centres unmarked) [Compound 13, 4-(4-Methylpiperazin-1-yl)-N-(5-(2-(p-tolyl)propanoyl)-1,4,5,6-tetrahydropyrrolo[3,4-c]pyrazol-3-yl)benzamide]",6.4
5,"Cc1cc(C)cc(CC(=O)N2Cc3[nH]nc(NC(=O)c4ccc(N5CCN(C)CC5)cc4)c3C2)c1 [Compound 14, N-(5-(2-(3,5-Dimethylphenyl)acetyl)-1,4,5,6-tetrahydropyrrolo[3,4-c]pyrazol-3-yl)-4-(4-methylpiperazin-1-yl)benzamide]",4.3
6,"Cc1ccc(C)c(CC(=O)N2Cc3[nH]nc(NC(=O)c4ccc(N5CCN(C)CC5)cc4)c3C2)c1 [Compound 15, N-(5-(2-(2,5-Dimethylphenyl)acetyl)-1,4,5,6-tetrahydropyrrolo[3,4-c]pyrazol-3-yl)-4-(4-methylpiperazin-1-yl)benzamide]",2.2
7,"CN1CCN(c2ccc(C(=O)Nc3n[nH]c4c3CN(C(=O)Cc3cc(F)cc(F)c3F)C4)cc2)CC1 [Compound 16, 4-(4-Methylpiperazin-1-yl)-N-(5-(2-(2,3,5-trifluorophenyl)acetyl)-1,4,5,6-tetrahydropyrrolo[3,4-c]pyrazol-3-yl)benzamide]",1.2
8,"Cc1[nH]c2ccccc2c1CC(=O)N1Cc2[nH]nc(NC(=O)c3ccc(N4CCN(C)CC4)cc3)c2C1 [Compound 17, N-(5-(2-(2-Methyl-1H-indol-3-yl)acetyl)-1,4,5,6-tetrahydropyrrolo[3,4-c]pyrazol-3-yl)-4-(4-methylpiperazin-1-yl)benzamide]",1.0
9,"CN1CCN(c2ccc(C(=O)Nc3n[nH]c4c3CN(C(=O)Cc3cc(F)cc(F)c3)C4)cc2)CC1 [Compound 18, N-(5-(2-(3,5-Difluorophenyl)acetyl)-1,4,5,6-tetrahydropyrrolo[3,4-c]pyrazol-3-yl)-4-(4-methylpiperazin-1-yl)benzamide]",0.7

# Target: T1, TbAUK1
# Experiment: in vitro kinase assay with immunoprecipitated AU1-tagged TbAUK1
# Format: biochemical
# Conditions: tested at 500 nM; AU1-tagged TbAUK1 pull-down, MBP substrate
row,SMILES,inhibition of TbAUK1 kinase activity
1,"CO[C@@H](C(=O)N1Cc2[nH]nc(NC(=O)c3ccc(N4CCN(C)CC4)cc3)c2C1)c1ccccc1 [Compound 1, danusertib]",inhibited TbAUK1 to the same background level as hesperadin
2,"CCc1cccc(CC)c1NC(=O)N1Cc2[nH]nc(NC(=O)c3ccc(N4CCN(C)CC4)cc3)c2C1 [Compound 2, PHA-680632]",inhibited TbAUK1 to the same background level as hesperadin
3,"CCS(=O)(=O)Nc1ccc2c(c1)/C(=C(/Nc1ccc(CN3CCCCC3)cc1)c1ccccc1)C(=O)N2 [Hesperadin, hesperadin]",completely inhibited TbAUK1

# From PMC3516633 (European journal of medicinal chemistry, 2012)
